Laboratory results as given in patent US20230265105A1, “MACROCYCLIC 7-PYRAZOL-5-YL-INDOLE DERIVATIVES AS INHIBITORS OF MCL-1” (Janssen Pharmaceutica NV, priority 2020, published 2023).

What was measured:
[1] = molecular target: Myeloid Cell Leukemia 1 (Mcl-1) (Homo sapiens, UniProt Q07820); test: Terbium labeled Mcl-1 HTRF binding assay with Cy5-labeled BIM BH3 peptide; settings: Ki=IC50/(1+[L]/Kd), [L]=8 nM, Kd=10 nM, 60 min incubation at room temperature, read-out: Tb-MCL1 Ki
Experimental: Terbium labeled Myeloid Cell Leukemia 1 (Mcl-1) homogeneous time-resolved fluorescence (HTRF) binding assay utilizing the BIM BH3 peptide (H2N-(C/Cy5Mal) WIAQELRRIGDEFN-OH) as the binding partner for Mcl-1.
This assay evaluated inhibition of the BH3 domain: Mcl-1 interaction by measuring the displacement of Cy5-labeled BIM BH3 peptide (H2N—(C/Cy5Mal) WIAQELRRIGDEFN-OH) in the HTRF assay format.
The following assay and stock buffers were prepared for use in the assay: (a) Stock buffer: 10 mM Tris-HCl, pH=7.5+150 mM NaCl, filtered, sterilized, and stored at 4° C.; and (b) 1×assay buffer, where the following ingredients were added fresh to stock buffer: 2 mM dithiothreitol (DTT), 0.0025% Tween-20, 0.1 mg/mL bovine serum albumin (BSA). The 1×Tb-Mcl-1+Cy5 Bim peptide solution was prepared by diluting the protein stock solution using the 1×assay buffer (b) to 25 pM Tb-Mcl-1 and 8 nM Cy5 Bim peptide.
Using the Acoustic ECHO, 100 nL of 100×test compound(s) were dispensed into individual wells of a white 384-well Perkin Elmer Proxiplate, for a final compound concentration of 1× and final DMSO concentration of 1%. Inhibitor control and neutral control (NC, 100 nL of 100% DMSO) were stamped into columns 23 and 24 of assay plate, respectively. Into each well of the plate was then dispensed 10 μL of the 1×Tb-Mcl-1+Cy5 Bim peptide solution. The plate was centrifuged with a cover plate at 1000 rpm for 1 minute, then incubated for 60 minutes at room temperature with plates covered.
The TR-FRET signal was read on an BMG PHERAStar FSX MicroPlate Reader at room temperature using the HTRF optic module (HTRF: excitation: 337 nm, light source: laser, emission A: 665 nm, emission B: 620 nm, integration start: 60 μs, integration time: 400 μs).
The BMG PHERAStar FSX MicroPlate Reader was used to measure fluorescence intensity at two emission wavelengths—665 nm and 620 nm—and report relative fluorescence units (RFU) for both emissions, as well as a ratio of the emissions (665 nm/620 nm)*10,000. The RFU values were normalized to percent inhibition as follows:
% inhibition=(((NC−IC)−(compound−IC))/(NC−IC))*100
where IC (inhibitor control, low signal)=mean signal of 1×Tb-MCl-1+Cy5 Bim peptide+inhibitor control or 100% inhibition of Mcl-1; NC (neutral control, high signal)=mean signal 1×Tb-MCl-1+Cy5 Bim peptide with DMSO only or 0% inhibition
An 11-point dose response curve was generated to determine IC50 values (using GenData) based on the following equation:
Y=Bottom+(Top−Bottom)/(1+10^((log IC50−X)*HillSlope))
where Y=% inhibition in the presence of X inhibitor concentration; Top=100% inhibition derived from the IC (mean signal of Mcl-1+inhibitor control); Bottom=0% inhibition derived from the NC (mean signal of Mcl-1+DMSO); Hillslope=Hill coefficient; and IC50=concentration of compound with 50% inhibition in relation to top/neutral control (NC).
In this assay [L]=8 nM and Kd=10 nM
Representative compounds of the present invention were tested according to the procedure as described above, with results as listed in the Table below (n.d. means not determined).

[2] = test system: MOLP-8 human multiple myeloma cell line; test: MOLP8 Caspase-Glo 3/7 apoptosis induction assay; format: cell-based; settings: MOLP-8 cells, 2 hours at 37° C.; 30 μM highest conc.; averaged over all runs on all batches
From the text: MCL-1 is a regulator of apoptosis and is highly over-expressed in tumor cells that escape cell death. The assay evaluates the cellular potency of small-molecule compounds targeting regulators of the apoptosis pathway, primarily MCL-1, Bfl-1, Bcl-2, and other proteins of the Bcl-2 family. Protein-protein inhibitors disrupting the interaction of anti-apoptotic regulators with BH3-domain proteins initiate apoptosis.
The Caspase-Glo® 3/7 Assay is a luminescent assay that measures caspase-3 and -7 activities in purified enzyme preparations or cultures of adherent or suspension cells. The assay provides a proluminescent caspase-3/7 substrate, which contains the tetrapeptide sequence DEVD. This substrate is cleaved to release aminoluciferin, a substrate of luciferase used in the production of light. Addition of the single Caspase-Glo® 3/7 Reagent in an “add-mix-measure” format results in cell lysis, followed by caspase cleavage of the substrate and generation of a “glow-type” luminescent signal.
This assay uses the MOLP-8 human multiple myeloma cell line, which is sensitive to MCL-1 inhibition.
Cell cultures were maintained between 0.2 and 2.0×10^6 cells/mL. The cells were harvested by collection in 50 mL conical tubes. The cells were then pelleted at 500 g for 5 mins before removing supernatant and resuspension in fresh pre-warmed culture medium. The cells were counted and diluted as needed.
The assay reagent was prepared by transferring the buffer solution to the substrate vial and mixing. The solution may be stored for up to 1 week at 4° C. with negligible loss of signal.
Compounds were delivered in assay-ready plates (Proxiplate) and stored at −20° C.
Assays always include 1 reference compound plate containing reference compounds. The plates were spotted with 40 nL of compounds (0.5% DMSO final in cells; serial dilution; 30 μM highest conc. 1/3 dilution, 10 doses, duplicates). The compounds were used at room temperature and 4 μL of pre-warmed media was added to all wells except column 2 and 23. The negative control was prepared by adding 1% DMSO in media. The positive control was prepared by adding the appropriate positive control compound in final concentration of 60 μM in media. The plate was prepared by adding 4 μL negative control to column 23, 4 μL positive control to column 2 and 4 μL cell suspension to all wells in the plate. The plate with cells was then incubated at 37° C. for 2 hours. The assay signal reagent is the Caspase-Glo solution described above, and 8 μL was added to all wells. The plates were then sealed and measured after 30 minutes.
The activity of a test compound was calculated as percent change in apoptosis induction as follows:
[formula] [formula] % Effect (AC50)=100−((sample−LC)/(HC−LC))*100
% Control=(sample/HC)*100
% Control min=(sample−LC)/(HC−LC)*100

Sequence of Myeloid Cell Leukemia 1 (Mcl-1) (Q07820 whole entry): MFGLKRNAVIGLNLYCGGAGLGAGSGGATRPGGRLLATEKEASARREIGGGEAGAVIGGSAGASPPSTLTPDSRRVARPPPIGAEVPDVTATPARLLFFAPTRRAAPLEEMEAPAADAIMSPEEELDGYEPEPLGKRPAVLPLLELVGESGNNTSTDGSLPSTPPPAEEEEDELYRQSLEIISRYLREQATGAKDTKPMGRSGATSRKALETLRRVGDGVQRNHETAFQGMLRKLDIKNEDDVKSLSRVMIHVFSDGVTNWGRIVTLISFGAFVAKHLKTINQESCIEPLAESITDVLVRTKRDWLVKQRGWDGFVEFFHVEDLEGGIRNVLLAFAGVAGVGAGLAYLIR

Structure (SMILES)	Ki [1] [nM]	AC50 [2] [nM]
Cc1nn(C)c2c1CSCc1cc(n(C)n1)CSc1cc(c3ccccc3c1)OCCCc1c(C(=O)O)n(C)c3c-2c(Cl)ccc13 (single isomer, unassigned) [Compound 1]	0.746	1220
CCn1c(C(=O)O)c2c3ccc(Cl)c(c31)-c1c(cnn1C)CCCc1cc(n(C)n1)CCc1cc(c3ccc(F)cc3c1)OCCC2 (single isomer, unassigned) [Compound 14]	6.15	3460
Cc1nn(C)c2c1CSCc1cc(n(C)n1)CCc1cc(c3ccc(F)cc3c1)OCCCc1c(C(=O)O)n(C)c3c-2c(Cl)ccc13 (single isomer, unassigned) [Compound 10]	0.307	10
Cc1nn(C)c2c1CSCc1cc(n(C)n1)CCc1cc(c3ccccc3c1)OCCCc1c(C(=O)O)n(C)c3c-2c(Cl)ccc13 (single isomer, unassigned) [Compound 11]	3.02	1620
